# Measurements: US11932645B2, “Substituted pyrazolo[1,5-a]pyrimidines and their use in the treatment of medical disorders” (Bial—R&D Investments, S.A., priority 2014, dated 2024)
# Molecular target: T1, glucocerebrosidase (Gcase) (Homo sapiens, UniProt P04062)
# T1 sequence (P04062 40-536): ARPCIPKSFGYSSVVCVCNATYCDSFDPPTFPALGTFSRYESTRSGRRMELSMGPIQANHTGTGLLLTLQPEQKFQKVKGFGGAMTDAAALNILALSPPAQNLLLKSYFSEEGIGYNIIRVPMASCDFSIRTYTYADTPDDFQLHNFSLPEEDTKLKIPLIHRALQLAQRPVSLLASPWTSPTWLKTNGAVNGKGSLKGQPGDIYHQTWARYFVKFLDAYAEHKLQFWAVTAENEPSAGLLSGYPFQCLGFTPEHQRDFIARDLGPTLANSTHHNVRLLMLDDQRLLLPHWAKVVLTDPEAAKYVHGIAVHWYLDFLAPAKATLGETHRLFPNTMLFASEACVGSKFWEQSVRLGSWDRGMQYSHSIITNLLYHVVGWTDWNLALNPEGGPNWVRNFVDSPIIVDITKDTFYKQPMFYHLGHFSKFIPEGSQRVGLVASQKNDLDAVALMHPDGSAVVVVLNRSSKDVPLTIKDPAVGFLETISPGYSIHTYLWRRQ
# Experiment: Glucocerebrosidase (Gcase) activation assay, 4-methylumbelliferyl-beta-D-glucopyranoside substrate, with saposin C
# Assay type: biochemical
# Settings: 0.1 μM test compound; 10 nM GCase, 100 nM saposin C, pH 4.7
# Protocol: The ability of exemplary compounds to activate glucocerebrosidase (Gcase) was measured.
# A 484 μL aliquot of a 1.0 mg/mL solution of phosphatidylserine (PS) (Sigma P7769) in chloroform was evaporated under a stream of nitrogen for 1 hour. The lipid film was dissolved over 4 minutes of vigorous vortexing in 40 mL of 176 mM K2HPO4/50 mM citric acid (pH 4.7) containing 7.5 μL of triton X-100, resulting in a mixed micellar preparation with a composition of 0.32 mM triton and 0.37 mol % PS. 4-Methylumbelliferyl-beta-D-glucopyranoside (ACROS-337025000) was dissolved in the micellar solution to a final concentration of 2 mM for use as the reaction substrate.
# Test compounds were diluted to the desired concentrations with dimethylsulfoxide (DMSO) from 10 mM stocks, and 0.41 μL of the DMSO compound mixture was added to 100 μL of micellar solution containing 10 nM GCase and 100 nM saposin C (Enzo ALX-201-262-C050). Pre-incubation was allowed to occur for 30 minutes at room temperature, after which the reaction was initiated by combining 25 μL of substrate solution with 25 μL of compound/GCase/saposin mixture. The reaction proceeded for 15 minutes at room temperature and was stopped by adding 150 μL of 1M glycine, pH 12.5. The endpoint of the reaction was monitored by measuring fluorescence intensity (excitation: 365 nm; emission: 440 nm) on a SpectraMax i3 instrument (Molecular Devices). Test compounds were screened at 1.0 and 0.1 μM final concentration, and subsequent 8-point dose response curves were obtained using 3-fold dilutions from a maximum final concentration of 5 μM.
# For experiments in which the test compound was used at a concentration of 1.0 μM, the symbol “+” indicates less than 30% Gcase activation; the symbol “++” indicates Gcase activation in the range of 30% up to 60%; and the symbol “+++” indicates Gcase activation greater than 60%. For experiments in which the test compound was used at a concentration of 0.1 μM, the symbol “*” indicates less than 10% Gcase activation; the symbol “**” indicates Gcase activation in the range of 10% up to 20%; and the symbol “***” indicates greater than 20% Gcase activation.
row,Percent Gcase Activation 0.1 μM Test Compound,SMILES
1,* (less than 10% Gcase activation),Cc1ccn2ncc(CNc3ccc(-c4cocn4)cc3)c2n1 [III-25]
2,* (less than 10% Gcase activation),C#CC1CCC(NC(=O)c2cnn3c(C)cc(C)nc23)CC1 (stereo not shown) [III-13]
3,* (less than 10% Gcase activation),Cc1cc(C)n2ncc(C(=O)Nc3cc(C4(C(F)(F)F)CC4)on3)c2n1 [III-18]
4,* (less than 10% Gcase activation),CO[C@H]1CC[C@H](C(C)(C)NC(=O)c2cnn3c(C)cc(C)nc23)CC1 [III-71]
5,* (less than 10% Gcase activation),Cc1cc(C)n2ncc(C(=O)Nc3ccc4oncc4c3)c2n1 [III-47]
6,* (less than 10% Gcase activation),COCC#Cc1ccc(NCc2cnn3c(C)cc(C)nc23)cc1 [III-29]
7,* (less than 10% Gcase activation),Cc1cc(C)n2ncc(C(=O)Nc3ccc(-c4cnn(C)c4)cc3)c2n1 [III-54]
8,* (less than 10% Gcase activation),Cc1cc(C)n2ncc(C(=O)Nc3ccc(N=[N+]=[N-])cc3)c2n1 [III-38]
9,*** (greater than 20% Gcase activation),C#Cc1ccc(NC(=O)c2cnn3c(C)cc(NC)nc23)cc1 [III-77]
10,* (less than 10% Gcase activation),Cc1cc(C)n2ncc(C(=O)N[C@H](C)c3ccc(F)cc3)c2n1 [III-65]
11,* (less than 10% Gcase activation),Cc1cc(C)n2ncc(C(=O)Nc3ccc4nc(C)oc4c3)c2n1 [III-44]

# Continued, molecule first:
row,SMILES,Percent Gcase Activation 0.1 μM Test Compound
1,Cc1cc(C)n2ncc(C(=O)NC(C)C3CCC(F)(F)CC3)c2n1 (stereo not shown) [III-66],* (less than 10% Gcase activation)
2,Cc1cc(C)n2ncc(C(=O)Nc3ccc(-c4ccon4)cc3)c2n1 [III-9],* (less than 10% Gcase activation)
3,Cc1cc(C)n2ncc(C(=O)Nc3ccc(-c4cocn4)cc3)c2n1 [III-10],** (Gcase activation in the range of 10% up to 20%)
4,Cc1cc(C)n2ncc(C(=O)Nc3ccc4nc(C)[nH]c4c3)c2n1 [III-45],* (less than 10% Gcase activation)
5,CCCCCOc1ccc(NC(=O)c2cnn3c(C)cc(C)nc23)cc1 [III-32],** (Gcase activation in the range of 10% up to 20%)
6,Cc1cc(C)n2ncc(C(=O)Nc3ccc4[nH]ncc4c3)c2n1 [III-41],* (less than 10% Gcase activation)
7,Cc1cc(C)n2ncc(C(=O)N[C@H](C)c3ccc(Cl)cc3)c2n1 [III-64],** (Gcase activation in the range of 10% up to 20%)
8,Cc1cc(C)n2ncc(C(=O)Nc3ccc(Cl)c(COc4cccnc4)c3)c2n1 [III-51],** (Gcase activation in the range of 10% up to 20%)
9,Cc1cc(C)n2ncc(C(=O)Nc3ccc4[nH]c(C)cc4c3)c2n1 [III-40],* (less than 10% Gcase activation)
10,Cc1cc(C)n2ncc(C(=O)Nc3ccc(C(C)O)cc3)c2n1 (stereo not shown) [III-35],* (less than 10% Gcase activation)
11,Cc1cc(C)n2ncc(C(=O)Nc3ccc(Cl)c(-c4cnco4)c3)c2n1 [III-53],** (Gcase activation in the range of 10% up to 20%)
12,Cc1cc(C)n2ncc(C(=O)Nc3ccc(-c4cscn4)cc3)c2n1 [III-27],** (Gcase activation in the range of 10% up to 20%)
13,CO[C@H]1CC[C@@H](C(C)(C)NC(=O)c2cnn3c(C)cc(C)nc23)CC1 [III-72],* (less than 10% Gcase activation)
14,Cc1cc(C)n2ncc(C(=O)Nc3ccc4c(c3)CCC4)c2n1 [IV-5],** (Gcase activation in the range of 10% up to 20%)
15,C#Cc1ccc(NC(=O)c2cnn3c(C)cc(C)nc23)cc1 [IV-1],** (Gcase activation in the range of 10% up to 20%)
16,Cc1cc(C)n2ncc(C(=O)Nc3ccc(-c4cnsc4)cc3)c2n1 [III-16],** (Gcase activation in the range of 10% up to 20%)
17,Cc1cc(C)n2ncc(C(=O)Nc3ccc(-c4ncco4)cc3)c2n1 [III-11],** (Gcase activation in the range of 10% up to 20%)
18,Cc1cc(C)n2ncc(C(=O)Nc3ccc4[nH]c(-c5ccco5)nc4c3)c2n1 [III-49],* (less than 10% Gcase activation)
19,Cc1cc(C)n2ncc(C(=O)Nc3ccc(CCCC(=O)O)cc3)c2n1 [III-34],* (less than 10% Gcase activation)
20,C#Cc1ccc(NC(=O)c2cnn3c(C)cc(C)nc23)c(OC)c1 [III-8],** (Gcase activation in the range of 10% up to 20%)
21,Cc1cc(C)n2ncc(C(=O)NC(C)(C)c3ccc(F)cc3F)c2n1 [III-70],** (Gcase activation in the range of 10% up to 20%)
22,COCC#Cc1ccc(NC(=O)c2cnn3c(C)cc(C)nc23)cc1 [III-4],** (Gcase activation in the range of 10% up to 20%)
23,Cc1cc(C)n2ncc(C(=O)Nc3ccc4c(c3)C(C3=NCCN3)CCC4)c2n1 (stereo not shown) [III-73],* (less than 10% Gcase activation)
24,Cc1cc(C)n2ncc(C(=O)Nc3ccc(-n4ccnc4)cc3)c2n1 [III-6],* (less than 10% Gcase activation)

# Same assay, conditions: 1.0 μM test compound; 10 nM GCase, 100 nM saposin C, pH 4.7
row,Percent Gcase Activation 1 μM Test Compound,SMILES
1,+++ (Gcase activation greater than 60%),Cc1cc(C)n2ncc(C(=O)Nc3ccc(-c4cocn4)cc3)c2n1 [III-10]
2,+++ (Gcase activation greater than 60%),Cc1cc(C)n2ncc(C(=O)N[C@H](C)c3ccc(Cl)cc3)c2n1 [III-64]
3,+++ (Gcase activation greater than 60%),Cc1cc(C)n2ncc(C(=O)Nc3ccc(Cl)c(COc4cccnc4)c3)c2n1 [III-51]
4,+ (less than 30% Gcase activation),Cc1ccn2ncc(CNc3ccc(-c4cocn4)cc3)c2n1 [III-25]
5,+++ (Gcase activation greater than 60%),Cc1cc(C)n2ncc(C(=O)Nc3ccc(Cl)c(-c4cnco4)c3)c2n1 [III-53]
6,+ (less than 30% Gcase activation),C#CC1CCC(NC(=O)c2cnn3c(C)cc(C)nc23)CC1 (stereo not shown) [III-13]
7,+ (less than 30% Gcase activation),Cc1cc(C)n2ncc(C(=O)Nc3cc(C4(C(F)(F)F)CC4)on3)c2n1 [III-18]
8,+ (less than 30% Gcase activation),Cc1cc(C)n2ncc(C(=O)Nc3ccc4oncc4c3)c2n1 [III-47]
9,+ (less than 30% Gcase activation),COCC#Cc1ccc(NCc2cnn3c(C)cc(C)nc23)cc1 [III-29]
10,+++ (Gcase activation greater than 60%),Cc1cc(C)n2ncc(C(=O)Nc3ccc(-c4ncco4)cc3)c2n1 [III-11]
11,+++ (Gcase activation greater than 60%),C#Cc1ccc(NC(=O)c2cnn3c(C)cc(NC)nc23)cc1 [III-77]
12,+ (less than 30% Gcase activation),Cc1cc(C)n2ncc(C(=O)Nc3ccc4nc(C)oc4c3)c2n1 [III-44]

# Second part, the molecule before the results:
row,SMILES,Percent Gcase Activation 1 μM Test Compound
1,Cc1cc(C)n2ncc(C(=O)NC(C)C3CCC(F)(F)CC3)c2n1 (stereo not shown) [III-66],+ (less than 30% Gcase activation)
2,Cc1cc(C)n2ncc(C(=O)Nc3ccc(-c4ccon4)cc3)c2n1 [III-9],+++ (Gcase activation greater than 60%)
3,Cc1cc(C)n2ncc(C(=O)Nc3ccc4nc(C)[nH]c4c3)c2n1 [III-45],+ (less than 30% Gcase activation)
4,CCCCCOc1ccc(NC(=O)c2cnn3c(C)cc(C)nc23)cc1 [III-32],+++ (Gcase activation greater than 60%)
5,Cc1cc(C)n2ncc(C(=O)Nc3ccc4[nH]ncc4c3)c2n1 [III-41],+ (less than 30% Gcase activation)
6,Cc1cc(C)n2ncc(C(=O)Nc3ccc4[nH]c(C)cc4c3)c2n1 [III-40],+ (less than 30% Gcase activation)
7,Cc1cc(C)n2ncc(C(=O)Nc3ccc(C(C)O)cc3)c2n1 (stereo not shown) [III-35],+ (less than 30% Gcase activation)
8,Cc1cc(C)n2ncc(C(=O)Nc3ccc(-c4cscn4)cc3)c2n1 [III-27],+++ (Gcase activation greater than 60%)
9,CO[C@H]1CC[C@@H](C(C)(C)NC(=O)c2cnn3c(C)cc(C)nc23)CC1 [III-72],+++ (Gcase activation greater than 60%)
10,Cc1cc(C)n2ncc(C(=O)Nc3ccc4c(c3)CCC4)c2n1 [IV-5],+++ (Gcase activation greater than 60%)
11,C#Cc1ccc(NC(=O)c2cnn3c(C)cc(C)nc23)cc1 [IV-1],++ (Gcase activation in the range of 30% up to 60%)
12,CO[C@H]1CC[C@H](C(C)(C)NC(=O)c2cnn3c(C)cc(C)nc23)CC1 [III-71],++ (Gcase activation in the range of 30% up to 60%)
13,Cc1cc(C)n2ncc(C(=O)Nc3ccc(-c4cnsc4)cc3)c2n1 [III-16],+++ (Gcase activation greater than 60%)
14,Cc1cc(C)n2ncc(C(=O)Nc3ccc(-c4cnn(C)c4)cc3)c2n1 [III-54],++ (Gcase activation in the range of 30% up to 60%)
15,Cc1cc(C)n2ncc(C(=O)Nc3ccc(N=[N+]=[N-])cc3)c2n1 [III-38],++ (Gcase activation in the range of 30% up to 60%)
16,Cc1cc(C)n2ncc(C(=O)Nc3ccc4[nH]c(-c5ccco5)nc4c3)c2n1 [III-49],+ (less than 30% Gcase activation)
17,Cc1cc(C)n2ncc(C(=O)Nc3ccc(CCCC(=O)O)cc3)c2n1 [III-34],+ (less than 30% Gcase activation)
18,C#Cc1ccc(NC(=O)c2cnn3c(C)cc(C)nc23)c(OC)c1 [III-8],++ (Gcase activation in the range of 30% up to 60%)
19,Cc1cc(C)n2ncc(C(=O)NC(C)(C)c3ccc(F)cc3F)c2n1 [III-70],+++ (Gcase activation greater than 60%)
20,COCC#Cc1ccc(NC(=O)c2cnn3c(C)cc(C)nc23)cc1 [III-4],+++ (Gcase activation greater than 60%)
21,Cc1cc(C)n2ncc(C(=O)N[C@H](C)c3ccc(F)cc3)c2n1 [III-65],++ (Gcase activation in the range of 30% up to 60%)
22,Cc1cc(C)n2ncc(C(=O)Nc3ccc4c(c3)C(C3=NCCN3)CCC4)c2n1 (stereo not shown) [III-73],+ (less than 30% Gcase activation)
23,Cc1cc(C)n2ncc(C(=O)Nc3ccc(-n4ccnc4)cc3)c2n1 [III-6],+ (less than 30% Gcase activation)
